The record followed here is publication PMC11794477 (Nature Communications, 2025).

In experiment [1] the target is T1, Discoidin Domain Receptor Tyrosine Kinase 2 (DDR2 N456S) (Homo sapiens, UniProt Q16832, N456S).
T1 sequence (Q16832 22-855 N456S): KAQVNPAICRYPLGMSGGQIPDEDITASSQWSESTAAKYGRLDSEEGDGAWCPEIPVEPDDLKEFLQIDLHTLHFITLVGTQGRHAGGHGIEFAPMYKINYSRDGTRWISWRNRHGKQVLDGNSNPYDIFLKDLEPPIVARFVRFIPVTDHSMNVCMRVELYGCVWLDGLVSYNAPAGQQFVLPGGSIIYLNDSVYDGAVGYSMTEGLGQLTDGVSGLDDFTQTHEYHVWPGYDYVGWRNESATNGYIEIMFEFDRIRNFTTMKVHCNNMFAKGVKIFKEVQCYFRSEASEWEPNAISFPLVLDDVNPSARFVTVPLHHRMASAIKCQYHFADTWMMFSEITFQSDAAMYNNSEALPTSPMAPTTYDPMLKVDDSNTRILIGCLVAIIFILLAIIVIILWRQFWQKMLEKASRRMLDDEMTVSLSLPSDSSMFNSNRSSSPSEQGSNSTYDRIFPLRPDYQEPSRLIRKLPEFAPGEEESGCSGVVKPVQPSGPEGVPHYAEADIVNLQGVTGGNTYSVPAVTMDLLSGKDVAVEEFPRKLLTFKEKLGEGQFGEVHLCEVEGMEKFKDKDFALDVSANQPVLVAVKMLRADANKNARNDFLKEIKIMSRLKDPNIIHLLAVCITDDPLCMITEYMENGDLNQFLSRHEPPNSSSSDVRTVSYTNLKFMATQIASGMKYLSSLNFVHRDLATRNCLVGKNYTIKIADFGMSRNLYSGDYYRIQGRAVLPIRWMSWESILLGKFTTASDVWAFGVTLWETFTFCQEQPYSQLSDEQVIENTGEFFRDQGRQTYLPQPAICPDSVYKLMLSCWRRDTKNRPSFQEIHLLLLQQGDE
Description: SelectScreen kinase profiling at […] CT-179, ATP at Km. The class given is biochemical.

The target of experiment [2] is T2, Fetal Liver Tyrosine Kinase 3 (FLT3) (Homo sapiens, UniProt P36888).
T2 sequence (P36888 27-993): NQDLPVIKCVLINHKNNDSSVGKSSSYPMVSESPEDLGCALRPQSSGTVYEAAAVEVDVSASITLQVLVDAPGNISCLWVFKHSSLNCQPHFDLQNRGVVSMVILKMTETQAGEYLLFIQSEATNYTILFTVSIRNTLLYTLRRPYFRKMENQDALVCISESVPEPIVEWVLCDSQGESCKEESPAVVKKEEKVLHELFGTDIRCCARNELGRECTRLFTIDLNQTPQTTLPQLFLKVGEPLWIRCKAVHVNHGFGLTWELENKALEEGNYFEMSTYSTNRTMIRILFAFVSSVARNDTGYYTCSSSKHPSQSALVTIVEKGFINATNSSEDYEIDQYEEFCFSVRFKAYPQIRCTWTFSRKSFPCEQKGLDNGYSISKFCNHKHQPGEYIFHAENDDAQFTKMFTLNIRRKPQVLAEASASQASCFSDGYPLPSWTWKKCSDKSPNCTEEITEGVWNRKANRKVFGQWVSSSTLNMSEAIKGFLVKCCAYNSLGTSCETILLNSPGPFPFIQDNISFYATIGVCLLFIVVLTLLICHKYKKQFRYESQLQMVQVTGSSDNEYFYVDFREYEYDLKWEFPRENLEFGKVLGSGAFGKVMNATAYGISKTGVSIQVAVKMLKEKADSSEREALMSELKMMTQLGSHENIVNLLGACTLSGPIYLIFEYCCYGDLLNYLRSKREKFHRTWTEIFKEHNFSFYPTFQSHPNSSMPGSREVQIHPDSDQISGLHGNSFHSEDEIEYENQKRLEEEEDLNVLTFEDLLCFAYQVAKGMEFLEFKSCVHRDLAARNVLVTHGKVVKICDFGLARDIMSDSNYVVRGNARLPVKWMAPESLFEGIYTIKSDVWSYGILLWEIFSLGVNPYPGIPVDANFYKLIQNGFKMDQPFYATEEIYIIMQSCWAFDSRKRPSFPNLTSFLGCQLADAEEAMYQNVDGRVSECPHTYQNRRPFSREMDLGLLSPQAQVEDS
As to the kind of experiment: SelectScreen kinase profiling at ATP Km, with dose-response follow-up. The class given is biochemical.

For the next experiment, the target named is T3, OLIG2 (Homo sapiens, UniProt Q13516).
T3 sequence (Q13516 1-323): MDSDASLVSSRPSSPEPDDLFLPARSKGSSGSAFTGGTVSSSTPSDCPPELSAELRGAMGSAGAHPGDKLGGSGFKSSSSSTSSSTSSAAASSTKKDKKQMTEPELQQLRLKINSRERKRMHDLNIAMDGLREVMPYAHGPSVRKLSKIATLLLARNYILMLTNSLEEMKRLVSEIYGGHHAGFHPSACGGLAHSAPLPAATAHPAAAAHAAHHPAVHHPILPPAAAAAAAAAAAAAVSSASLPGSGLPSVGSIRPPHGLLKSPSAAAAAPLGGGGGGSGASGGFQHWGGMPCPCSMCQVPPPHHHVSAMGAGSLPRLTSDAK
In kind it is cell-based.

In general, IC50 refers to the concentration that gives 50% inhibition. A low value points to inhibition by little substance.

For `Cc1cc(NCCCN(C)C)nc(NC(=O)Nc2ccc(Cl)c(Cl)c2)n1` [CT-179], the “% inhibition at 1 μM” value in experiment [1] turned out to be 87. For the same compound, the IC50 in experiment [2] was 20 nM; at OLIG2 it was 1250 nM.
